What was measured:
[1] = test system: mice subjected to fetal reprogramming; experiment: Treadmill endurance test of mice subjected to fetal reprogramming; format: in vivo; conditions: for running distance / running distance increase versus control / running time / running time increase versus control: maternal 10 mg/kg, gestation and lactation; for Increase Rate (Administration Group/Control Group), Distance / Increase Rate (Administration Group/Control Group), Time: 10 mg/kg/day; for muscle colour after skin removal versus control: fetal reprogramming, 10 mg/kg/day oral
Protocol: Before the experiment, mice were exercised for 5 minutes at a speed of 7 meters/min for two days so as to be adapted to exercising equipment. On day 3, the main experiment was conducted. As for the method for experiment, the mice were made to run at a speed of 10 meter/min for 60 minutes, and after that, the speed was increased at 1 meter/min once every 15 minutes until the maximum speed reaches 15 meters/min. As for the male mice, the running time was increased by 2.9 fold ([…], P<0.0001, n=6) and the running distance was increased by 3.0 fold (9927±1168 versus 3303±394 m, P<0.0001) in the PPAR δ agonist (CMDD1111)-administered mouse group than the control mouse group.
The Experiment using pregnant C57BL/6 mice was conducted in order to verify an endurance enhancement effect by fetal reprogramming of CMDD1226. […]
The experiment for verifying the fetal reprogramming effect of GW501516 and determining the optimum administration period thereof was conducted. The experiment method was shown in FIG. 1, and the experiment was conducted with respect to three kinds of administration periods (gestation period, lactation period, and both of gestation and lactation periods). As the experiment result, the group administered with PPAR δ agonist only during the gestation period had 2.6-fold and 3.2-fold increases in the running time and the running distance, respectively, and the group administered with PPAR δ agonist only during the lactation period had 2.4-fold and 3.0-fold increases in the running time and the running distance, respectively, as compared with the control group. The group administered with PPAR δ agonist during both the gestation and lactation periods had the most obvious increase in endurance, and had 5.1-fold and 6.6-fold increases as compared with the control group (FIG. 22).
The animal test was conducted in order to verify the muscle endurance enhancement and muscular function improvement effects of the material according to the present invention. […] […] The test using a treadmill was conducted in order to confirm the effect of this muscular fiber change on muscle endurance enhancement and muscular function improvement.

[2] = test system: mice subjected to fetal reprogramming; experiment: Morris water maze test of fetal-reprogrammed mice; format: in vivo; conditions: for Morris water maze test: average time required to find the platform: 8-week old, maternal 10 mg/kg/day gestation and lactation; for Morris water maze test time: mother 10 mg/kg/day oral during the fetal reprogramming period
Protocol: An animal experiment was conducted in order to verify a memory improvement effect of the mice subjected to fetal reprogramming by PPAR δ agonist. Pregnant mice were orally administered with PPAR δ agonist, CMDD1111, at a concentration of 10 mg/kg/day during the gestation and lactation periods in order to verify effects of the invented material at the brain formation stage. When the fetus became an 8-week old adult, the Morris water maze test was conducted to compare memory between the control group and the administration group. This test can check special learning and memory, and is a task that is mainly dependent on the hippocampus in the brain. As the experiment result, the average times required to find the flatform were 26 seconds and 22 seconds (male and female, respectively) for the control group and were 9 seconds and […] (male and female, respectively) for the administration group. Therefore, it was verified that the PPAR δ agonist improved memory during the fetal programming period, and this effect was maintained until the adulthood.
The animal test was conducted in order to verify the memory improvement effect of the material according to the present invention. Compounds 5 and 9, which are the developed materials, were orally administered to the mother at a concentration of 10 mg/kg/day during the fetal reprogramming period. The Morris water maze test was used to confirm the difference in brain function between the control group and the administered group.

[3] = biological target: T1, hPPARa (Homo sapiens, UniProt Q07869); experiment: Transfection assay in CV-1 cells, hPPARa; format: cell-based; conditions: luciferase reporter
T1 construct: expressed in transfected cells; host or cells: CV-1 cells
T1 sequence (Q07869 1-468): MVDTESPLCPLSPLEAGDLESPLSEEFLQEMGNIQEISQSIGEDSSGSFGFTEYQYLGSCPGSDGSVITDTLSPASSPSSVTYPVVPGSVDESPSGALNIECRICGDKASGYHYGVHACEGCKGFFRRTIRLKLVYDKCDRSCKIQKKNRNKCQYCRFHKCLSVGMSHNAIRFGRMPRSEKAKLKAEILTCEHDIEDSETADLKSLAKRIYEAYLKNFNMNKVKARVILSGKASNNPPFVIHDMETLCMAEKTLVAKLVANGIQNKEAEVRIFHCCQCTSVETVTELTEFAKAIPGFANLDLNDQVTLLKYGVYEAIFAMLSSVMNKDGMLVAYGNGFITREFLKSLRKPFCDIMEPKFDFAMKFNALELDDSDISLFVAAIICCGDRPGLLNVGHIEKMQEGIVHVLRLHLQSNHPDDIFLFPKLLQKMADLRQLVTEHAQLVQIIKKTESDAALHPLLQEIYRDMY
Protocol: This assay was conducted by using CV-1 cells. The cells were cultured on a 96-well plate with a DMEM medium containing 10% FBS, DBS (delipidated), and 1% penicillin/streptomycin in 37° C. of an incubator 5% of carbon dioxide. Test was conducted in four stages of cell inoculation, transfection, treatment with the developed material, and result confirmation. The CV-1 cells were inoculated on the 96-well plate at a cell density at 5,000 cells/well, and after 24 hours, transfection was performed. PPARs plasmid DNA, reporter DNA, and β-galactosidase DNA were mixed with a transfection reagent, and then used to treat the cells. The developed material was dissolved in dimethylsulfoxide (DMSO), and then was used to treat the cells by using media at various concentrations. After 24 hours of culturing in an incubator, the cells were lysed with a lysis buffer and luciferase activity and β-galactosidase activity were measured using a luminometer and a microplate reader. The measured luciferase value was calibrated with the β-galactosidase value, and this value was depicted on a graph and EC50 was determined.

[4] = test system: C57BL/6 mice with obesity induced by 35% fat feedstuff; experiment: Obesity suppression effect in high-fat diet mice; format: in vivo; conditions: 10 mg/kg/day oral, 60-day high-fat diet (35% fat)
Protocol: Test using mice was conducted in order to confirm the in vivo effect of the material according to the present invention. 8-week old C57BL/6 mice were used, and feedstuff containing 35% fat was used to induce obesity. A. vehicle and Compounds 5 and […] were orally administered. over 60-day period of high-fat diet.

[5] = test system: 10-week old C57BL/6 mice; experiment: Treadmill endurance test of adult mice exercised while administered; format: in vivo; conditions: 10 mg/kg/day oral with exercise over 30 days
Protocol: In addition, it was verified that the developed material was effective in enhancing muscle endurance and improving muscular function. 10-week old C57BL/6 mice were exercised while being orally administered with the developed material at a concentration of 10 mg/kg/day. The mice were exercised using a treadmill for 30 minutes once each day over 30 days. The mice were exercised under exercise conditions of 2 meter/min for 5 minutes, 5 meters/min for 5 minutes, 8 meters/min for 5 minutes, and 20 meters/min for 5 minutes, respectively. By the end of the test, muscle endurance enhancement and muscular function improvement effects were tested by using a treadmill.

Cc1cc(SC(Cc2ccccc2)c2sc(-c3ccc(C(F)(F)F)cc3)nc2C)ccc1OCC(=O)O (stereo not shown) [CMDD1111] was tested, and the running distance ([1]; female mice) was 11194±261 m, the “running distance increase versus control” value ([1]; female mice) was 2.1 fold and the running time ([1]; female mice) was 761 ± 17 min. The “running time increase versus control” value ([1]; female mice) was 2.0 fold, the running distance ([1]; male mice) was 9927±1168 m and the “running distance increase versus control” value ([1]; male mice) was 3.0 fold. For the same molecule, the running time ([1]; male mice) was 677 ± 78 min, the “running time increase versus control” value ([1]; male mice) was 2.9 fold and the “Morris water maze test: average time required to find the platform” value ([2]; female) was 6 s. For the same molecule, the “Morris water maze test: average time required to find the platform” value ([2]; male) was 9 s.

Cc1cc(SC(Cc2ccc(-c3ccccc3)cc2)c2sc(-c3ccc(C(F)(F)F)cc3)nc2C)ccc1OCC(=O)O (stereo not shown) [Compound 5] was tested, and the “Increase Rate (Administration Group/Control Group), Distance” value ([1]; Gestation + Lactation Periods) was 3.9 fold, the “Increase Rate (Administration Group/Control Group), Time” value ([1]; Gestation + Lactation Periods) was 3.6 fold and the “Increase Rate (Administration Group/Control Group), Distance” value ([1]; Gestation Period) was 2.5 fold. For the same molecule, the “Increase Rate (Administration Group/Control Group), Time” value ([1]; Gestation Period) was 2.4 fold, the “Increase Rate (Administration Group/Control Group), Distance” value ([1]; Lactation Period) was 2.2 fold and the “Increase Rate (Administration Group/Control Group), Time” value ([1]; Lactation Period) was 2.1 fold. The “muscle colour after skin removal versus control” value [1] was “redder than the control group”, the “Morris water maze test time” value [2] was 8.2 s and the “EC50 hPPARa” value [3] was “ia”. The “obesity suppression effect versus vehicle control” value [4] was 35%, the “increase in the running distance versus control” value [5] was 1.8 fold and the “increase in the running time versus control” value [5] was 1.7 fold.

With Cc1cc(SC(Cc2ccc(-c3ccc(F)cc3)cc2)c2sc(-c3ccc(C(F)(F)F)cc3)nc2C)ccc1OCC(=O)O (stereo not shown) [Compound 9] the “Increase Rate (Administration Group/Control Group), Distance” value ([1]; Gestation + Lactation Periods) was 3.0 fold, the “Increase Rate (Administration Group/Control Group), Time” value ([1]; Gestation + Lactation Periods) was 2.8 fold and the “Increase Rate (Administration Group/Control Group), Distance” value ([1]; Gestation Period) was 1.9 fold. The “Increase Rate (Administration Group/Control Group), Time” value ([1]; Gestation Period) was 1.9 fold, the “Increase Rate (Administration Group/Control Group), Distance” value ([1]; Lactation Period) was 1.5 fold and the “Increase Rate (Administration Group/Control Group), Time” value ([1]; Lactation Period) was 1.5 fold. For the same molecule, the “muscle colour after skin removal versus control” value [1] was “redder than the control group”, the “Morris water maze test time” value [2] was 9.7 s and the “EC50 hPPARa” value [3] was “ia”. The “obesity suppression effect versus vehicle control” value [4] was 33%, the “increase in the running distance versus control” value [5] was 1.5 fold and the “increase in the running time versus control” value [5] was 1.5 fold.
